Assay results: patent US20210128596A1, “COMPOSITIONS AND METHODS FOR TREATING SEPTIC CARDIOMYOPATHY” (UNIVERSITY OF PENNSYLVANIA, priority 2017, published 2021)
“Also recorded” adds a separate entry of the source.

Legend:
[1] = test system: ventricular tissue of septic mice; test: Mitochondrial biogenesis, fusion and fission gene expression in ventricular tissue; assay type: in vivo, mouse
Protocol: (§1) RNA purification and gene expression analysis—Total RNA was purified from AC16 cells or hearts using the TRIzol reagent according to the instructions of the manufacturer (Invitrogen). DNase-treated RNA was used for cDNA synthesis using the ProtoScript II First Strand cDNA Synthesis Kit (New England Biolabs). Quantitative real-time PCR was performed with the Sybr Select Master Mix (Applied Biosystems). Incorporation of the SYBR green dye into the PCR products was monitored with the Applied Biosystems StepOnePlus Real-Time PCR System. Samples were normalized against mouse 36B4 or human rps13 RNA.

[2] = test system: permeabilized adult cardiomyocytes; test: Calcium uptake assay in permeabilized adult cardiomyocytes; assay type: in vivo, mouse; conditions: cardiomyocytes isolated 12 h after CLP, 6 h after LGM2605
Protocol: Calcium uptake assay in permeabilized adult cardiomyocytes Cardiomyocytes were isolated from mice 12 hours after CLP or sham surgery and 6 hours after LGM2605 or saline injection. Calcium uptake was performed as previously described^22 and detailed below. Before permeabilization, cardiomyocytes were washed in a Ca free buffer (120 mM NaCl, 5 mM KCL 1 mM KH2PO4, 0.2 mM MgCl2, 0.1 mM EGTA and 20 mM HEPES-NaOH, at pH 7.4) and stored on ice for at least 10 min. Cardiomyocytes were pelleted by centrifugation and transferred to an intracellular-like medium (permeabilization buffer: 120 mM KCl, 10 mM. NaCl, 1 mM KH2PO4, 20 mM, 4 HEPES-Tris, at pH 7.2, protease inhibitors (EDTA-free complete tablets, Roche Applied Science), 2 μM thapsigargin and digitonin (40 μg ml^−1)). The cell suspension supplemented with succinate (2 mM) was placed in a fluorimeter and permeabilized by gentle stirring. Fura2FF (0.5 μM) was added at 0 s, and JC-1 (800 nM) at 20 s. Fluorescence signal was monitored in a temperature-controlled (37° C.) multiwavelength-excitation dual-wavelength-emission spectrofluorometer (Delta RAM, Photon Technology International) using 490-nm excitation/535-nm emission for the JC-1 monomer. 570-nm excitation/595-nm emission for the J-aggregate of JC-1 and 340-nm/380-nm for Fura2FF. At 400 s, a single 10 μM Ca^2+ pulse was added, and changes in cytosolic [Ca^2] was monitored. […]

C57BL/6 mice = test: In vivo cardiac adrenergic sensitivity (hemodynamics, isoproterenol); design: species or system mouse; conditions: 12 h post-CLP, LGM2605 6 h post-CLP
Protocol: In vivo cardiac adrenergic sensitivity measurements—Hemodynamics measurements were performed, as published^21. Mice were anesthetized with 2% Tribromoethanol (Avertin). The right carotid artery was cannulated with a 1.4 French micro-manometer (Millar Instruments, Houston, Tex.) and was advanced into LV cavity, measuring LV pressure, LV end-diastolic pressure (LVEDP) and heart rate (HR). These parameters as well as maximal values of the instantaneous first derivative of LV pressure (+dP/dtmax, as a measure of cardiac contractility) and minimum values of the instantaneous first derivative of LV pressure (−dP/dtmin, as a measure of cardiac relaxation) were recorded at baseline and after administration, through the jugular vein, of increasing doses of the β-adrenergic receptor (βAR) agonist, isoproterenol (0.1 ng, 0.5 ng, 1 ng, 5 ng, 10 ng). Data was recorded and analyzed on a PowerLab System (AD Instruments).

AC16 cells = test: Mitochondrial superoxide (MitoSOX Red) in LPS-treated AC16 cells; assay type: cell-based, human; conditions: LPS 12 h with SDG/LGM2605 (50 μM)
Protocol: AC16 cells were either left untreated or treated for 12 hours with Liposaccharide (LPS) in the absence or presence of SDG, and subsequently stained with mitosox red.
Measurement of mitochondrial superoxide, mitochondrial membrane potential and mitochondrial number—AC16 cells were cultured in sterile cell culture dishware at approximately 80% confluence. After overnight incubation, cells were treated with LPS (1 μg/ml), LPS and LGM2605 (50 μM). LPS and LGM2605 were diluted in serum free media and the control group was incubated as well with serum free media. At 12 hours after the treatment the AC16 cells were loaded with mitochondrial superoxide indicator MitoSOX Red (5 μM, M36008, Molecular Probes) and incubated for 30 minutes in the dark. Excess MitoSOX Red was removed following three washes with PBS solution. MitoSOX Red fluorescence was recorded at 510 (excitation) and 580 nm (emission).

[3] = test system: adult cardiomyocytes isolated from septic mice; test: Mitotracker Red staining of adult cardiomyocytes isolated from septic mice; assay type: in vivo, mouse; conditions: adult cardiomyocytes isolated 12 hours post-CLP
Protocol: Adult mouse cardiomyocytes isolation-Adult mouse cardiomyocytes (ACMs) were isolated from ventricles of C57BL/6 mice 12 hours post-sham surgery, CLP surgery or combined performance of CLP and treatment with LGM2605 at 6 hours post-surgery. Hearts from heparinized mice (90 USP; ip) were cannulated through the aorta. Hearts were perfused with perfusion buffer (120.4 mMNaCl, 14.7 mM KCL, 0.6 mM NaH2PO4, 0.6 mM KH2PO4, 1.2 mM MgSO4, 10 mM Hepes, 4.6 mM NaHCO3, 30 mMtaurine, 10 mM BDM, 5.5 mM glucose; pH 7.4) for 3 min followed by digestion with perfusion buffer containing 19250 units Collagenese type II (Worthington), 5-6 mg trypsin and 0.02 mM CaCl2 for 7 min. Ventricles were gently […] into small pieces, perfusion buffer containing 5 mg/ml BSA and 0.125 mM CaCl2 was added and filtered with 100 μm nylon. The filtrate was pelleted by gravity for 5 min, centrifuged for 30 sec at 700 rpm and the pellet resuspended in perfusion buffer containing 5 mg/ml BSA and 0.225 mM CaCl2. The cells were pelleted by gravity for 10 min, centrifuged for 30 sec at 700 rpm and the pellet resuspended in perfusion buffer containing 5 mg/ml BSA and 0.525 mM CaCl2. […] Mitotracker Red fluorescence was recorded at 581 (excitation) and 644 nm (emission).

MCU and MICU1 = MCU and MICU1 mRNA and protein levels after LPS; assay type: in vivo, mouse; conditions: LPS with SDG
Protocol: Mice were either sham treated or treated with LPS in with or without SDG (n=3 for each group) and the levels of MCU and MICU1 mRNAs were measured in quantitative PCR while the levels of protein were assessed through western blot.
as §1
Protein purification and analysis—Isolated heart tissue or AC16 cells were homogenized in radioimmune precipitation assay buffer containing protease and phosphatase inhibitors (Pierce Protease and Phosphatase Inhibitor Mini Tablets, Thermo Scientific). 30-50 μg of total protein extract was applied to SDS-PAGE and transferred onto nitrocellulose membranes.

**Q.** Which “mitochondrial biogenesis markers PGC1α, PGC1β, mtTFA gene expression” value ([1]; ventricular tissue 12 hours post-CLP) does the source give for COc1cc(C[C@@H](CO[C@@H]2O[C@H](CO)[C@@H](O)[C@H](O)[C@H]2O)[C@H](CO[C@@H]2O[C@H](CO)[C@@H](O)[C@H](O)[C@H]2O)Cc2ccc(O)c(OC)c2)ccc1O [LGM2605, secoisolariciresinol diglucoside] here?
**A.** The value was “None of these changes was affected by LGM2605”.

**Q.** And the “MFN1, MFN2, DRP1, and FIS1 expression” value ([1]; ventricular tissue 12 hrs after CLP)?
**A.** Its value is “restored the CLP-mediated changes in MFN1, MFN2, DRP1, and FIS1 expression”.

**Q.** What about the mitochondrial calcium uptake [2] of the same molecule?
**A.** The mitochondrial calcium uptake was “increased mitochondrial Ca^2+ uptake rate and release of Ca^2+ following CCCP administration beyond that observed for sham operated mice”.

**Q.** What about the mitochondrial calcium uptake ([2]; listed as SDG) of the same molecule?
**A.** Its mitochondrial calcium uptake is “mitochondrial calcium uptake was increased”.

**Q.** And the responsiveness to isoproterenol (C57BL/6 mice)?
**A.** Its responsiveness to isoproterenol is “less robust in both septic groups regardless of LGM2605 treatment”.

**Q.** What about the “basal LVdP/dtmax and LVdP/dtmin” value (C57BL/6 mice; compared to sham surgery) of the same molecule?
**A.** Its value is “lower basal myocardial LVdP/dtmax (FIG. 14B) and LVdP/dtmin (FIG. 14C) with or without LGM2605 administration”.

**Q.** What about the “mitochondrial superoxide levels (Mitosox Red staining)” value (AC16 cells) of the same molecule?
**A.** The value was “suppressed by LGM2605”.

**Q.** And the “mitochondrial superoxide levels (Mitosox Red staining)” value (AC16 cells; listed as SDG)?
**A.** Its value is “statistically significant decrease in superoxide levels in LPS-treated cells; also recorded: lower mitosox red staining”.

**Q.** And the “mitochondrial abundance (Mitotracker staining)” value [3]?
**A.** Its value is “prevents CLP-associated reduction in mitochondrial abundance”.

**Q.** What about the “mitochondrial abundance (Mitotracker staining)” value ([3]; listed as SDG) of the same molecule?
**A.** Its value is “restored mitochondrial abundance in vitro and in vivo”.

**Q.** What about the “MCU and MICU1 mRNA levels” value (MCU and MICU1) of the same molecule?
**A.** Its value is “restored mRNA expression”.

**Q.** And the “MCU protein level (western blot)” value (MCU and MICU1)?
**A.** Its value is “reverses the LPS-mediated decrease of MCU protein level”.

**Q.** What about the “MICU1 protein level (western blot)” value (MCU and MICU1) of the same molecule?
**A.** The value was “increases MICU1 protein level”.
